Assay results as given in ChEMBL document CHEMBL1158408, “Large-scale application of high-throughput molecular mechanics with Poisson-Boltzmann surface area for routine physics-based scoring of protein-ligand complexes” (J Med Chem, 2009).

What was measured:
[1] = biological target: Urokinase-type plasminogen activator (Homo sapiens, UniProt P00749)
[2] = biological target: T1, Serine/threonine-protein kinase Chk1 (Homo sapiens, UniProt O14757)
T1 sequence (O14757 whole entry): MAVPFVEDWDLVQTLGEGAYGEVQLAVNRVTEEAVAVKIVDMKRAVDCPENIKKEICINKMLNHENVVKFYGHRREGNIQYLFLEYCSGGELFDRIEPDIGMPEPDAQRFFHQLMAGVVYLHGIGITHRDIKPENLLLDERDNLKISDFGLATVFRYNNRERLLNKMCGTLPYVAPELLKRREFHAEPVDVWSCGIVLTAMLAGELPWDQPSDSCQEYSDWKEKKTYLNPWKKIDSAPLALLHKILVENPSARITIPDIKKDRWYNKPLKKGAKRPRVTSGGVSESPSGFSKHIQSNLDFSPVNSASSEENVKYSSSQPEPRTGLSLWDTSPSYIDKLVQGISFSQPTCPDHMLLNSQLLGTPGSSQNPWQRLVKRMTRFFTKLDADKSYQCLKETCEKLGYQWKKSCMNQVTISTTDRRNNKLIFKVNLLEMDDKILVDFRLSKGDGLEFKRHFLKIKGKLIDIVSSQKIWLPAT

| SMILES | Ki [1] | Ki [2] |
| --- | --- | --- |
| N=C(N)c1ccc2ccccc2c1 | 6310 nM | – |
| N=C(N)c1ccc2cc(C(=O)Nc3ccccc3)cc(C3CCOC3)c2c1 (stereo unspecified) | 100 nM | – |
| O=C(O)c1ccc2c(c1)S(=O)(=O)c1ccccc1C2=O | – | 39800 nM |
| N#Cc1cnc(NC(=O)Nc2cc(Cl)ccc2OC2CCOC2)cn1 (stereo unspecified) | – | 3.16 nM |
| O=C1Nc2cncc(n2)OCCCCCOc2ccc(Cl)cc2N1 | – | 7.94 nM |
| NC1CCc2ccccc2C1 (stereo unspecified) | 39800 nM | – |
| CCN(CC)CCc1c(C)[nH]c(/C=C2\C(=O)NN=C2c2cnccn2)c1C | – | 316 nM |
| CC(C)Oc1cccc(NC(=O)c2ccc(OCC(=N)N)c(Br)c2)c1 | 7940 nM | – |
| C1=Nc2ccccc2CN1 | 50100 nM | – |
| Cc1n[nH]c(C)c1-c1ccccc1 | – | 100000 nM |
| O=C1Nc2cc(CCOc3ccc(N4CCOCC4)cc3)ccc2Nc2cc(-c3cn(Cc4cc(F)cc(F)c4)c4cnccc34)ccc21 | – | 12.6 nM |
| Clc1ncnc2[nH]cc(I)c12 | – | 31600 nM |
| N=C(N)c1ccc2cc(/C=C/CCc3cccnc3)cc(Br)c2c1 | 3160 nM | – |
| C=CCN1CCc2cc(NC(=O)c3ccc4cc(C(=N)N)ccc4c3)ccc2C1 | 100 nM | – |
| Nc1ccc2cc(NCCc3ccccc3)cc(Nc3ncccn3)c2n1 | 5010 nM | – |
| N#Cc1cnc(NC(=O)Nc2cc(Cl)ccc2OC2C[C@H](O)[C@@H](O)C2)cn1 | – | 5.01 nM |
| CN(C)Cc1ccc(/C=C/c2cc(Br)c3cc(C(=N)N)ccc3c2)o1 | 1260 nM | – |

| SMILES | Ki [1] | Ki [2] |
| --- | --- | --- |
| N=C(N)NC(=O)c1nc(-c2ccoc2)c(NCCCc2ccccc2)nc1N | 316 nM | – |
| Nc1ccc2cccc(NS(=O)(=O)c3ccc4ccccc4c3)c2n1 | 15800 nM | – |
| N=C(N)c1ccc2cccc(NC(=O)OCc3ccccc3)c2c1 | 158 nM | – |
| O=C1c2ccccc2S(=O)(=O)c2cc(CO)ccc21 | – | 39800 nM |
| Nc1ccc2cc(O)cc(Nc3ncccn3)c2n1 | 3980 nM | – |
| Cc1ccc(CN2CCc3cc(NC(=O)c4ccc5cc(C(=N)N)ccc5c4)ccc3C2)cc1 | 126 nM | – |
| C=CCN1C(=O)NC(=O)/C1=C/c1c[nH]c2ncccc12 | – | 7940 nM |
| N=C(N)c1ccc2cc(Nc3ncccn3)ccc2c1 | 1000 nM | – |
| N=C(N)c1ccc2cccc(C(=O)NO)c2c1 | 6310 nM | – |
| N=C(N)c1ccc2cc(C(=O)Nc3ccc4c(c3)CCC4)ccc2c1 | 398 nM | – |
| N=C(N)c1ccc2cc(CCc3ccc(CN4CCCC4)cc3)cc(Nc3ncccn3)c2c1 | 31.6 nM | – |
| N=C(N)NC(=O)c1cc(Br)ccc1N | 3980 nM | – |
| Nc1ccc2cccc(NC(=O)C3CC3)c2n1 | 10000 nM | – |
| C=COC(=O)Nc1cccc2ccc(N)nc12 | 5010 nM | – |
| N=C(N)c1ccc2cc(C(=O)Nc3ccc4c(c3)OCO4)ccc2c1 | 251 nM | – |
| Nc1ccc2cccc(NS(=O)(=O)c3cc(Br)c(Br)s3)c2n1 | 5010 nM | – |
| CCC(C)/C=C/c1cc(C(=O)OC)cc2ccc(C(=N)N)cc12 (stereo unspecified) | 398 nM | – |

Results, then the molecule that gave them:

| Ki [1] | Ki [2] | SMILES |
| --- | --- | --- |
| 15.8 nM | – | N=C(N)c1ccc2cc(C(=O)Nc3ccc4c(c3)CCNC4)ccc2c1 |
| – | 126 nM | N[C@H](COc1cncc(-c2ccc3c(c2)/C(=C/c2ccc[nH]2)C(=O)N3)c1)Cc1c[nH]c2ccccc12 |
| – | 7.94 nM | OCc1cccc2c1Cc1c(-c3ccc(-c4ccc(O)cc4)cc3)n[nH]c1-2 |
| – | 3.98 nM | OCc1ccc2c(c1)-c1[nH]nc(-c3ccc(-c4ccc(O)cc4)cc3)c1C2 |
| – | 6.31 nM | Oc1ccc(-c2ccc(-c3n[nH]c4c3Cc3cc(O)ccc3-4)cc2)cc1 |
| – | 7.94 nM | OCc1ccc2c(c1)Cc1c(-c3ccc(-c4ccc(O)cc4)cc3)n[nH]c1-2 |
| 1580 nM | – | N=C(N)c1ccc2cc(/C=C(\Cl)c3ccccc3)ccc2c1 |
| 100000 nM | – | Nc1ccc2nc(N)ccc2c1 |
| – | 12.6 nM | COc1cc(-c2ccc3c(c2)Nc2ccc(CCOc4ccc(N5CCOCC5)cc4)cc2NC3=O)ccc1[N+](=O)[O-] |
| – | 2.51 nM | CC(C)(O)c1ccc2c(c1)NC(=O)c1ccc(Nc3ccncc3)cc1N2 |
| – | 7.94 nM | COC(=O)Cc1ccc2c(c1)NC(=O)c1ccc(-c3cc(OC)ncc3C)cc1N2 |
| – | 39.8 nM | COc1cc(-c2ccc3c(-c4nc5ccc(N)cc5[nH]4)n[nH]c3c2)ccc1O |
| – | 12.6 nM | COC(=O)Cc1ccc2c(c1)NC(=O)c1ccc(-c3cccc4cnccc34)cc1N2 |
| 10000 nM | – | Nc1ccc2ccc(C(=O)NCc3ccccc3)cc2n1 |
| – | 3.98 nM | COc1cccc(-c2ccc3c(c2)Nc2cc(OCc4csc(C)n4)c(OC)cc2NC3=O)c1 |
| – | 10 nM | CC(C)(O)c1ccc2c(c1)NC(=O)c1ccc(Nc3ccnc(Nc4ccnc(Cl)c4)c3)cc1N2 |

| Ki [1] | Ki [2] | SMILES |
| --- | --- | --- |
| 31600 nM | – | N#Cc1ccccc1COc1cccc2ccc(N)nc12 |
| 10000 nM | – | Nc1ccc2cc(NC(=O)CCc3ccccc3)ccc2n1 |
| – | 15.8 nM | O=C1Nc2cc(CCOc3ccc(N4CCOCC4)cc3)ccc2Nc2cc(-c3ccc(O)cc3)ccc21 |
| 10000 nM | – | Nc1ccc2cc(NC(=O)c3ccccc3)ccc2n1 |
| 39800 nM | – | COc1cc(Nc2ncccn2)c2nc(N)ccc2c1 |
| 50100 nM | – | Nc1ccc2c(O)cccc2c1 |
| 251 nM | – | N=C(N)c1ccc2cc(C(=O)Nc3ccc4c(c3)CCCN4)ccc2c1 |
| – | 794 nM | O=C1Nc2cc(-c3ccc(O)cc3)ccc2Nc2ccsc21 |
| – | 251 nM | COC(=O)Cc1ccc2c(c1)NC(=O)c1ccc(-c3ccc(S(N)(=O)=O)s3)cc1N2 |
| – | 6.31 nM | COc1cccc(-c2ccc3c(c2)Nc2cc(OCc4ccncc4)c(OC)cc2NC3=O)c1 |
| – | 2.51 nM | COc1cc2c(cc1OCCCN1CCOCC1)Cc1c(-c3ccccc3)n[nH]c1-2 |
| 1.58 nM | – | CC(C)C1=NCCc2ccc(NC(=O)c3cc(Nc4ncccn4)c4cc(C(=N)N)ccc4c3)cc21 |
| – | 3980 nM | O=C1Nc2ccccc2Nc2cc(Nc3ccc(O)cc3)ccc21 |
| – | 6310 nM | O=C1Nc2ccccc2Nc2cc(-c3ccnc(OCCCO)c3)ccc21 |
| 251 nM | – | N=C(N)c1ccc2cc(CCc3ccc4c(c3)CCNC4)ccc2c1 |
| – | 501 nM | O=C1c2ccccc2S(=O)(=O)c2cc(-c3nnn[nH]3)ccc21 [DOXANTRAZOLE] |
